Patent publication US12473262B2, “Aryl hydrocarbon receptor activators” (Oregon State University, priority 2019, dated 2025)

How the values were obtained:
[1] = Liver microsomal stability, mouse; details: for Rem @ MLM × 30 min: mouse liver microsomes, 1 μM compound, 0.5 mg/ml protein; for half-life at 1 μM / microsomal CLint at 1 μM: mouse, liver microsomes, pH 7.4
[2] = Liver microsomal stability, rat; details: for Rem @ RLM × 30 min: rat liver microsomes, 1 μM compound, 0.5 mg/ml protein; for half-life at 1 μM / microsomal CLint at 1 μM: rat, liver microsomes, pH 7.4
Method: (§1) The assessment of metabolic stability of testing compounds was performed using human, mouse, rat, dog and monkey liver microsomes (20 mg protein/ml). Each reaction mixture contained 42.5 μL of 0.1 M potassium phosphate buffer pH 7.4, containing respective LM protein (final concentration 0.5 mg/ml). 2.5 μL of the compound stock solution was added in it (1 μM final concentration). The reaction was initiated by the addition of 5 μL NADPH solution (final Concentration 1 mM). At different time points (0, 5, 15, and 30 minutes), samples were quenched with 200 μL of cold acetonitrile containing ISTD Propranolol. Samples were centrifuged at 3500 rpm for 20 mM at 4° C. Supernatant was subjected to LC-MS/MS analysis for quantification. Verapamil was used as a positive control.

[3] = Liver microsomal stability, human; details: for Rem @ HLM × 30 min: human liver microsomes, 1 μM compound, 0.5 mg/ml protein; for half-life at 1 μM / microsomal CLint at 1 μM: human, liver microsomes, pH 7.4
Method: as §1

[4] = target: aryl hydrocarbon receptor (AhR) (Mus musculus (Mouse), UniProt P30561); test: AhR ligand screening: AhRE-luciferase reporter in transfected Hepa1 cells; format: cell-based; details: for Fold @ 1 nM: fold change of luciferase expression at 1 nM test compound relative to vehicle (0.1% DMSO); for Fold @ 100 nM: fold change of luciferase expression at 100 nM test compound relative to vehicle (0.1% DMSO); for Fold @ 10 uM: fold change of luciferase expression at 10 uM test compound relative to vehicle (0.1% DMSO); for Fold relative to benchmark @ 100 nM: luciferase expression at 100 nM test compound relative to 100 nM benchmark compound 11-cl-BBQ
Procedure, shortened: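 Mouse Hepa1 cells transfected with an AhRE-luciferase reporter were plated at 1×10^4 cells/well, grown overnight, then exposed to compounds. Cell lysates were assayed for luciferase by luminometry, with results given as fold induction over 0.1% DMSO vehicle.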

Sequence of aryl hydrocarbon receptor (AhR) (P30561 10-805): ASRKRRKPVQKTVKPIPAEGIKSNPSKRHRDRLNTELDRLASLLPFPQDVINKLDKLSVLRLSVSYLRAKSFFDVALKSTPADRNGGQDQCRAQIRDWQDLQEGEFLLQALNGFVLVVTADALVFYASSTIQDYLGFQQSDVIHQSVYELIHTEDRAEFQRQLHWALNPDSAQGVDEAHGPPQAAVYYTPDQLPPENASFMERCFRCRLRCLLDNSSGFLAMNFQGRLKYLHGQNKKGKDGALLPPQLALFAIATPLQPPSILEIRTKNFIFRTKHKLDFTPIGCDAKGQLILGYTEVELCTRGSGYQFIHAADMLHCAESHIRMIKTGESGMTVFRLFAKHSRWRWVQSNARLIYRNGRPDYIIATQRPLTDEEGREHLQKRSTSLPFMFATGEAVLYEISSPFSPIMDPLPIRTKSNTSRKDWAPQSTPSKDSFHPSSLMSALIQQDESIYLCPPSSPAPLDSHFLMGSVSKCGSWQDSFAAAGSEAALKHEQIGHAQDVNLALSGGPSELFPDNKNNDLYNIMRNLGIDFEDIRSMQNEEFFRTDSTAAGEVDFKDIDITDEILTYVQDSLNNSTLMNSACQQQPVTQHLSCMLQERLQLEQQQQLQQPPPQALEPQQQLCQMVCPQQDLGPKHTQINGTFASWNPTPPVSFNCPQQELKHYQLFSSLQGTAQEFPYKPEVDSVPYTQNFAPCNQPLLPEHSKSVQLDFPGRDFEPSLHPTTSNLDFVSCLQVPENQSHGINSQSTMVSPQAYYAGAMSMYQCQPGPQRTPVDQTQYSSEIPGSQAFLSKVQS
Sequence of aryl hydrocarbon receptor (AhR) (P53762 whole entry partner): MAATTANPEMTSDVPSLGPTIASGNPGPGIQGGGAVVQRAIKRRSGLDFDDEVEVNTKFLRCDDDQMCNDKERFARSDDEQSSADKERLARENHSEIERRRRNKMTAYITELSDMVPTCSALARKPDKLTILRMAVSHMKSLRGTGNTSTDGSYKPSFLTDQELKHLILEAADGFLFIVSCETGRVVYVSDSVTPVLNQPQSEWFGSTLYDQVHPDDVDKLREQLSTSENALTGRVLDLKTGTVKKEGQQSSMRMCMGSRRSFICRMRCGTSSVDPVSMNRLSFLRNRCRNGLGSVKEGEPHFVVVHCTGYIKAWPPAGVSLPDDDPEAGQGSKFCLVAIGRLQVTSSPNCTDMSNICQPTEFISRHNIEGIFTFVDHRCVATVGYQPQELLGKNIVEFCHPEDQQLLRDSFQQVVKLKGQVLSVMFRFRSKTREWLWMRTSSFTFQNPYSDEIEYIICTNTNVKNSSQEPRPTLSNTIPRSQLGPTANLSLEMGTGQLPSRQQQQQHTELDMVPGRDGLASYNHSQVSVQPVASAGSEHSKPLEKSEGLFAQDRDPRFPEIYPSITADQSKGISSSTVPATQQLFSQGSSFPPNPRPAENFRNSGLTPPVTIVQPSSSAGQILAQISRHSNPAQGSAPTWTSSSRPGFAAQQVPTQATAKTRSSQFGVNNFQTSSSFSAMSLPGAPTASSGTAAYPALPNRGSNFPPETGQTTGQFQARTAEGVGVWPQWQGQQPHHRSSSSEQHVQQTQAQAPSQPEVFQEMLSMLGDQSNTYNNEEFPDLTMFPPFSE

## O=C(c1cccc2ccccc12)C1CN(C(=O)c2ccccc2)c2ccc(Cl)cc21 (centres unmarked) [Compound 521]
[1]
  Rem @ MLM × 30 min: 64.6%
  half-life at 1 μM: 60.9 min
  microsomal CLint at 1 μM: 23 µL/min/mg
[2]
  Rem @ RLM × 30 min: 45.5%
  half-life at 1 μM: 24.8 min
  microsomal CLint at 1 μM: 56 µL/min/mg
[3]
  Rem @ HLM × 30 min: 58.0%
  half-life at 1 μM: 40.3 min
  microsomal CLint at 1 μM: 34 µL/min/mg
[4]
  Fold @ 1 nM: 1 fold
  Fold @ 100 nM: 1 fold
  Fold @ 10 uM: 1 fold
  Fold relative to benchmark @ 100 nM: 0.07 fold

## O=S(=O)(c1ccc2ccccc2c1)n1c(-c2cccc3ccccc23)nc2ccc(Cl)cc21 [Compound 786]
[1]
  Rem @ MLM × 30 min: 22.1%
  half-life at 1 μM: 13.4 min
  microsomal CLint at 1 μM: 104 µL/min/mg
[2]
  Rem @ RLM × 30 min: 25.6%
  half-life at 1 μM: 14.8 min
  microsomal CLint at 1 μM: 93.8 µL/min/mg
[3]
  Rem @ HLM × 30 min: 27.4%
  half-life at 1 μM: 16.1 min
  microsomal CLint at 1 μM: 86.2 µL/min/mg
[4]
  Fold @ 1 nM: 1 fold
  Fold @ 100 nM: 31 fold
  Fold @ 10 uM: 40 fold
  Fold relative to benchmark @ 100 nM: 1.07 fold

## CCc1ccc(S(=O)(=O)n2c(-c3cccc4ccccc34)nc3ccc(Cl)cc32)cc1 [Compound 776]
[1]
  Rem @ MLM × 30 min: 23.9%
  half-life at 1 μM: 14.6 min
  microsomal CLint at 1 μM: 94.7 µL/min/mg
[2]
  Rem @ RLM × 30 min: 27.5%
  half-life at 1 μM: 16.3 min
  microsomal CLint at 1 μM: 84.9 µL/min/mg
[3]
  Rem @ HLM × 30 min: 28.3%
  half-life at 1 μM: 16.4 min
  microsomal CLint at 1 μM: 84.6 µL/min/mg
[4]
  Fold @ 1 nM: 1 fold
  Fold @ 100 nM: 15 fold
  Fold @ 10 uM: 20 fold
  Fold relative to benchmark @ 100 nM: 0.6 fold

## O=S(=O)(c1ccc(C(F)(F)F)cc1)n1c(-c2cccc3ccccc23)nc2cc(Cl)ccc21 [Compound 781]
[1]
  Rem @ MLM × 30 min: 18.0%
  half-life at 1 μM: 12.1 min
  microsomal CLint at 1 μM: 115 µL/min/mg
[2]
  Rem @ RLM × 30 min: 43.1%
  half-life at 1 μM: 24.4 min
  microsomal CLint at 1 μM: 56.8 µL/min/mg
[3]
  Rem @ HLM × 30 min: 44.4%
  half-life at 1 μM: 24.6 min
  microsomal CLint at 1 μM: 56.3 µL/min/mg
[4]
  Fold @ 1 nM: 1 fold
  Fold @ 100 nM: 20 fold
  Fold @ 10 uM: 24 fold
  Fold relative to benchmark @ 100 nM: 0.8 fold

## O=C(c1ccccc1)c1c[nH]c2ccc(Cl)cc12 [Compound 892]
[1]
  Rem @ MLM × 30 min: 36.7%
  half-life at 1 μM: 21 min
  microsomal CLint at 1 μM: 66.1 µL/min/mg
[2]
  Rem @ RLM × 30 min: 64.9%
  half-life at 1 μM: 57 min
  microsomal CLint at 1 μM: 24.3 µL/min/mg
[3]
  Rem @ HLM × 30 min: 24.7%
  half-life at 1 μM: 15.3 min
  microsomal CLint at 1 μM: 90.7 µL/min/mg
[4]
  Fold @ 1 nM: 1 fold
  Fold @ 100 nM: 1 fold
  Fold @ 10 uM: 15 fold
  Fold relative to benchmark @ 100 nM: 0.02 fold

## CN(C)c1ccc(C(=O)c2c[nH]c3ccc(Cl)cc23)cc1 [Compound 891]
[1]
  Rem @ MLM × 30 min: 52.4%
  half-life at 1 μM: 36.3 min
  microsomal CLint at 1 μM: 38.2 µL/min/mg
[2]
  Rem @ RLM × 30 min: 45.2%
  half-life at 1 μM: 31 min
  microsomal CLint at 1 μM: 44.7 µL/min/mg
[3]
  Rem @ HLM × 30 min: 54.3%
  half-life at 1 μM: 42.4 min
  microsomal CLint at 1 μM: 32.7 µL/min/mg
[4]
  Fold @ 1 nM: 1 fold
  Fold @ 100 nM: 1 fold
  Fold @ 10 uM: 21 fold
  Fold relative to benchmark @ 100 nM: 0.02 fold

## O=C(c1ccc(Cl)cc1Cl)c1c[nH]c2ccc(Cl)cc12 [Compound 890]
[1]
  Rem @ MLM × 30 min: 39.3%
  half-life at 1 μM: 28.2 min
  microsomal CLint at 1 μM: 49.1 µL/min/mg
[2]
  Rem @ RLM × 30 min: 37.4%
  half-life at 1 μM: 29 min
  microsomal CLint at 1 μM: 47.8 µL/min/mg
[3]
  Rem @ HLM × 30 min: 44.7%
  half-life at 1 μM: 35.2 min
  microsomal CLint at 1 μM: 39.4 µL/min/mg
[4]
  Fold @ 1 nM: 1 fold
  Fold @ 100 nM: 2 fold
  Fold @ 10 uM: 17 fold
  Fold relative to benchmark @ 100 nM: 0.04 fold

## O=S(=O)(c1ccc2ccccc2c1)n1c(-c2cccc3ccccc23)nc2cc(Cl)ccc21 [Compound 785]
[1]
  Rem @ MLM × 30 min: 49.3%
  half-life at 1 μM: 29.4 min
  microsomal CLint at 1 μM: 47.2 µL/min/mg
[2]
  Rem @ RLM × 30 min: 57.1%
  half-life at 1 μM: 36.5 min
  microsomal CLint at 1 μM: 37.9 µL/min/mg
[3]
  Rem @ HLM × 30 min: 54.2%
  half-life at 1 μM: 33.9 min
  microsomal CLint at 1 μM: 40.9 µL/min/mg
[4]
  Fold @ 1 nM: 1 fold
  Fold @ 100 nM: 16 fold
  Fold @ 10 uM: 44 fold
  Fold relative to benchmark @ 100 nM: 0.55 fold

## O=C(c1cccc(Cl)c1Cl)c1c[nH]c2ccc(Cl)cc12 [Compound 889]
[1]
  Rem @ MLM × 30 min: 43.5%
  half-life at 1 μM: 33.9 min
  microsomal CLint at 1 μM: 40.9 µL/min/mg
[2]
  Rem @ RLM × 30 min: 33.5%
  half-life at 1 μM: 25.6 min
  microsomal CLint at 1 μM: 54.2 µL/min/mg
[3]
  Rem @ HLM × 30 min: 30.2%
  half-life at 1 μM: 22.6 min
  microsomal CLint at 1 μM: 61.2 µL/min/mg
[4]
  Fold @ 1 nM: 1 fold
  Fold @ 100 nM: 1 fold
  Fold @ 10 uM: 5 fold
  Fold relative to benchmark @ 100 nM: 0.02 fold

## O=C(C1CC1)n1c(-c2cccc3ccccc23)nc2ccc(Cl)cc21 [Compound 774]
[1]
  Rem @ MLM × 30 min: 28.2%
  half-life at 1 μM: 19.3 min
  microsomal CLint at 1 μM: 71.9 µL/min/mg
[2]
  Rem @ RLM × 30 min: 45.5%
  half-life at 1 μM: 31.9 min
  microsomal CLint at 1 μM: 43.5 µL/min/mg
[3]
  Rem @ HLM × 30 min: 52.7%
  half-life at 1 μM: 36.3 min
  microsomal CLint at 1 μM: 38.2 µL/min/mg
[4]
  Fold @ 1 nM: 1 fold
  Fold @ 100 nM: 21 fold
  Fold @ 10 uM: 28 fold
  Fold relative to benchmark @ 100 nM: 0.84 fold

## COc1ccc(C(=O)c2c[nH]c3ccc(Cl)cc23)cc1 [Compound 894]
[1]
  Rem @ MLM × 30 min: 54.5%
  half-life at 1 μM: 37.6 min
  microsomal CLint at 1 μM: 36.9 µL/min/mg
[2]
  Rem @ RLM × 30 min: 58.1%
  half-life at 1 μM: 43 min
  microsomal CLint at 1 μM: 32.3 µL/min/mg
[3]
  Rem @ HLM × 30 min: 57.9%
  half-life at 1 μM: 45.3 min
  microsomal CLint at 1 μM: 30.6 µL/min/mg
[4]
  Fold @ 1 nM: 1 fold
  Fold @ 100 nM: 1 fold
  Fold @ 10 uM: 7 fold
  Fold relative to benchmark @ 100 nM: 0.02 fold

## O=C(c1ccc(SC(F)(F)F)cc1)c1c[nH]c2ccc(Cl)cc12 [Compound 884]
[1]
  Rem @ MLM × 30 min: 22.2%
  half-life at 1 μM: 13.9 min
  microsomal CLint at 1 μM: 100 µL/min/mg
[2]
  Rem @ RLM × 30 min: 23.1%
  half-life at 1 μM: 14.3 min
  microsomal CLint at 1 μM: 96.7 µL/min/mg
[3]
  Rem @ HLM × 30 min: 81.2%
  half-life at 1 μM: 98.8 min
  microsomal CLint at 1 μM: 14 µL/min/mg
[4]
  Fold @ 1 nM: 1 fold
  Fold @ 100 nM: 2 fold
  Fold @ 10 uM: 16 fold
  Fold relative to benchmark @ 100 nM: 0.04 fold

## O=C(c1ccc(F)c(F)c1)n1c(-c2cccc(-c3ccccc3)c2)nc2ccc(Cl)cc21 [Compound 772]
[4]
  Fold @ 1 nM: 1 fold
  Fold @ 100 nM: 1 fold
  Fold @ 10 uM: 1 fold
  Fold relative to benchmark @ 100 nM: 0.04 fold

## COc1ccc(C(=O)n2c(-c3cccc(C(F)(F)F)c3)nc3ccc(Cl)cc32)cc1 [Compound 765]
[4]
  Fold @ 1 nM: 1 fold
  Fold @ 100 nM: 2 fold
  Fold @ 10 uM: 14 fold
  Fold relative to benchmark @ 100 nM: 0.08 fold
